Source: patent publication US20150164884A1, “HCV COMBINATION THERAPY” (Boehringer Ingelheim International GmbH, priority 2009, published 2015)
≈ marks a conversion by molar mass, not a printed value. Where a name gives a salt, the structure may show the parent alone. Read-outs that look alike come from different tables or passages of the source.

Assays:
[1] = Solubility of Compound (1) forms in non-aqueous excipients (HPLC of filtrate); type: physicochemical; conditions: room temperature, up to 4 days
Procedure: (§1) The solubility of Compound (1), as either Type A or the sodium salt form, was investigated in various non-aqueous solvents. The solutions were prepared by addition of excess Compound (1) to 0.25 ml to 1.0 ml of excipient in amber screw cap vials with Teflon lined caps. The samples were allowed to rotate at room temperature for up to 4 days. Sampling was done by centrifuging (14,000 rpm on the Eppendorf model 5415C table top centrifuge) and filtering through a 0.45 μm PVDF filter. The filtrate was subject to HPLC analysis for determining the solubility. HPLC analysis was conducted with an to Agilent 1100 using gradient or isocratic conditions. Both methods used acetonitrile/water (each with 0.1% Triflouroacetic Acid) and an ACE C-18 stationary phase with column heating maintained at 40-45° C. The wavelength of detection was set at 220 nm or 264 nm Wet solids were collected and analyzed for form change (stability) by XRPD.

[2] = Form change (stability) study of slurried solids by XRPD; type: physicochemical; conditions: slurried in either ethanol or propylene glycol
Procedure: as §1
XRPD analyses for the form change studies were conducted on a Bruker AXS X-Ray Powder Diffractometer Model D8 Discover or D8 Advance, available from Bruker AXS, Inc. of Madison, Wis., using CuKα radiation. The tube power was set to either 40 kV and 40 mA or 40 kV and 30 mA. […]

SMILES	Solubility ([1]; excipient Capmul MCM)	Solubility ([1]; excipient Capmul PG8)	Solubility ([1]; excipient Ethanol)	Solubility ([1]; excipient Labrasol)	Solubility ([1]; excipient PEG 400)	Solubility ([1]; excipient Transcutol P)	Form stability (change in XRPD pattern of remaining solid phase) ([2]; listed as Type A form of Compound (1))	Solubility ([1]; Capmul MCM (non-aqueous excipient), oil or lipid, thermodynamic from solid, excipient Capmul MCM, read-out: Solubility)	Solubility ([1]; Capmul PG8 (non-aqueous excipient), oil or lipid, thermodynamic from solid, excipient Capmul PG8, read-out: Solubility)	Solubility ([1]; Labrasol (non-aqueous excipient), oil or lipid, thermodynamic from solid, excipient Labrasol, read-out: Solubility)	Solubility ([1]; PEG 400 (non-aqueous excipient), organic solvent or mixture, thermodynamic from solid, excipient PEG 400, read-out: Solubility)	Solubility ([1]; propylene glycol (non-aqueous excipient), organic solvent or mixture, thermodynamic from solid, excipient Propylene Glycol, read-out: Solubility)	Form stability (change in XRPD pattern of remaining solid phase) ([2]; listed as crystalline sodium salt form of Compound (1))
C=C[C@@H]1C[C@]1(NC(=O)[C@@H]1C[C@H](Oc2cc(-c3csc(NC(=O)C(C)C)n3)nc3c(Br)c(OC)ccc23)CN1C(=O)[C@@H](NC(=O)OC1CCCC1)C(C)(C)C)C(=O)O [Type A of Compound (1)]	220.6 ± 7.4 mg/mL (≈ 254 mM)	172.6 ± 8.3 mg/mL (≈ 198 mM)	0.9 ± 0.1 mg/mL (≈ 1.03 mM)	146.7 ± 5.1 mg/mL (≈ 169 mM)	136.8 ± 3.2 mg/mL (≈ 157 mM)	24.3 ± 0.3 mg/mL (≈ 27.9 mM)	clear form change	–	–	–	–	–	–
C=C[C@@H]1C[C@]1(NC(=O)[C@@H]1C[C@H](Oc2cc(-c3csc(NC(=O)C(C)C)n3)nc3c(Br)c(OC)ccc23)CN1C(=O)[C@@H](NC(=O)OC1CCCC1)C(C)(C)C)C(=O)O [Compound (1) Na salt]	–	–	187.0 ± 23.9 mg/mL	–	–	430.6 ± 14.7 mg/mL	–	262.5 ± 2.6 mg/mL	< 169 mg/mL	175 ± 11.8 mg/mL	234 ± 34 mg/mL	> 468 mg/mL	no change in the XRPD pattern
